Where two headings read alike, the source gives them in different places. Values belong to the substance of their own block, whether it stands above or below them.
Columns and labels:
[1] = Dynamic vapour sorption analysis (DVS): water sorption isotherms, hygroscopicity; type: physicochemical; details: 25 °C
[2] = not given; remark: listed apart in the source

Substance: palbociclib maleate (Form I) (1:1) salt
hygroscopicity (water sorption isotherms) [1]: does not exhibit significant hygroscopicity

Substance: palbociclib maleate (Form II) (1:1) salt
hygroscopicity (water sorption isotherms) [1]: does not exhibit significant hygroscopicity

Substance: palbociclib napsylate (1:1) salt
hygroscopicity (water sorption isotherms) [1]: does not exhibit significant hygroscopicity

hygroscopicity (water sorption isotherms) [1]: exhibits significant hygroscopicity
Substance: palbociclib napsylate (1:2) dihydrate salt

Substance: palbociclib oxalate (1:1) salt
hygroscopicity (water sorption isotherms) [1]: does not exhibit significant hygroscopicity

hygroscopicity (water sorption isotherms) [1]: exhibits significant hygroscopicity
Substance: palbociclib sulphate (C24H29N7O2 . ½ H2SO4 . 2 H2O) dihydrate salt

hygroscopicity (water sorption isotherms) ([1]; listed as palbociclib tosylate salt form): surprisingly low hygroscopicity | Total contamination (3 weeks, 25 °C 90% RH): 0.09% | Total unknown contaminant (3 weeks, 25 °C 90% RH): 0.09% | Water content (3 weeks, 25 °C 90% RH): 0.51% m/m% | Total contamination (3 weeks, 40 °C 70% RH): 0.09% | Total unknown contaminant (3 weeks, 40 °C 70% RH): 0.09% | Water content (3 weeks, 40 °C 70% RH): 0.49% m/m% | Total contamination (3 weeks, 70 °C): 0.10% | Total unknown contaminant (3 weeks, 70 °C): 0.10% | Water content (3 weeks, 70 °C): 0.49% m/m% | Unknown contaminant (RT 1.70 min, 3 weeks, 25 °C 90% RH): 0.04% | Unknown contaminant (RT 1.70 min, 3 weeks, 40 °C 70% RH): 0.05% | Unknown contaminant (RT 1.70 min, 3 weeks, 70 °C): 0.05% | Unknown contaminant (RT 1.70 min, Starting sample): 0.04% | Unknown contaminant (RT 2.56 min, 3 weeks, 25 °C 90% RH): 0.05% | Unknown contaminant (RT 2.56 min, 3 weeks, 40 °C 70% RH): 0.04% | Unknown contaminant (RT 2.56 min, 3 weeks, 70 °C): 0.05% | Unknown contaminant (RT 2.56 min, Starting sample): 0.04% | Total contamination (Starting sample): 0.08% | Total unknown contaminant (Starting sample): 0.08% | Water content (Starting sample): 0.34% m/m% | amount of "other unknown contaminants" (change after 3 weeks of storage, in words): remains unchanged | water absorption (under various storage conditions, compared to the isethionate salt, in words): significantly less water absorption | solubility ([2]; 0.1 M HCl (pH=1), 37 °C, 1440 min): 20000 µg/mL | solubility ([2]; pH 4.5 (slightly acidic), 37 °C, compared to reference palbociclib base Form A, in words): significantly better | solubility ([2]; pH 4.5 (slightly acidic), 37 °C, compared to reference palbociclib base Form A, in words, listed as palbociclib tosylate salt form): significantly better solubility | solubility ([2]; pH=1, 37 °C, compared to reference palbociclib base Form A, in words): comparable | solubility ([2]; pH=4.5 phosphate buffer, 37 °C, 1440 min): 200 µg/mL | solubility ([2]; pH=6.8 phosphate buffer, 37 °C, 1440 min): <30 µg/mL
Substance: palbociclib tosylate (1:1) salt
hygroscopicity (water sorption isotherms) ([1]; listed as palbociclib 4-toluenesulfonic acid (1:1) salt): does not exhibit significant hygroscopicity
